What was measured:
[1] = system: reserpine-induced hypothermia; test: Anti-reserpine activity: prevention of reserpine-induced hypothermia; type: in vivo, mice; conditions: Mus musculus, 4 h; oral, 30 min before reserpine 2.5 mg/kg endoperitoneally; rectal temperature four hours after reserpine; dose reducing symptoms by 50% vs control
Description: (§1) 1-oxo-1H-naphtho[2,1-b]pyran derivatives as well as the pharmaceutical compositions containing them, being the object of the present invention, are active on the central nervous system as antidepressive agents. The antidepressive activity of the compounds of the invention, evaluated in mice from the prevention of reserpine-induced blepharospasm and hypothermia, is shown in the following Table, where the antireserpine effect is indicated as ED50 values, that is, doses able to prevent reserpine-induced blepharospasm and hypothermia by reducing symptoms of 50% if compared with the values obtainable in control animals.
(§2) Reserpine was administered endoperitoneally at a dosage of 2.5 mg/kg, and the compounds tested were administered orally 30 minutes before administration of reserpine. Recording of blepharospasm (evaluated in scores according to the technique described by Rubin B. et al in J. Pharmacol. 120, 125, 1957) and measurement of body temperature (by means of a rectal thermocouple […]) were taken an hour, and respectively, four hours after the administration of reserpine. In particular, the compounds object of the present invention not only allow to obtain a lower general toxicity in comparison with standard antidepressive agents, but also a lower cardiac toxicity as well as the lack of peripheral atropine effects.

[2] = system: reserpine-induced blepharospasm; test: Anti-reserpine activity: prevention of reserpine-induced blepharospasm; type: in vivo, mice; conditions: Mus musculus, 1 h; oral, 30 min before reserpine 2.5 mg/kg endoperitoneally; scored one hour after reserpine; dose reducing symptoms by 50% vs control
Description: as §1, §2

## CN(C)c1cc(=O)c2c(ccc3ccccc32)o1 [1-oxo-3-dimethylamino-1H-naphtho[2,1-b]pyran]
[1]
  ED50: 21 mg/kg
[2]
  ED50: 8.7 mg/kg

## CCN(C)c1cc(=O)c2c(ccc3ccccc32)o1 [1-oxo-3-(N-methyl-N-ethyl)amino-1H-naphtho[2,1-b]pyran]
[1]
  ED50: 15 mg/kg
[2]
  ED50: 4 mg/kg
